This is an account of results in patent publication US8263046B2, “N-phenyl-N-pyridinyl-benzamides and benzenesulfonomides having cooling properties” (Givaudan S.A., priority 2005, dated 2012).

This experiment concerns panelists. In words: Experiments on cooling properties/intensities: panelists taste aqueous solutions. The experiment is classed as in vivo. To be noted: aqueous solution with cooling intensity similar or slightly higher than that of a solution of I-menthol at 2 ppm.

The compound `COc1ccc(C(=O)N(CCc2ccccn2)c2ccccc2)cc1` [Example 1, 4-Methoxy-N-phenyl-N-[2-(pyridin-2-yl)ethyl]benzamide] came in with a Concentration of 1.5 ppm.
For `COc1ccc(S(=O)(=O)N(CCc2ccccn2)c2ccccc2)cc1` [Example 2, 4-Methoxy-N-phenyl-N-[2-(pyridin-2-yl)ethyl]benzenesulfonamide] the value was 2 ppm; for `O=S(=O)(c1ccc(Cl)cc1)N(CCc1ccccn1)c1ccccc1` [Example 3a, 4-Chloro-N-phenyl-N-[2-(pyridin-2-yl)ethyl]benzenesulfonamide], 2 ppm; for `CCNC(=O)C1CC(C)CCC1C(C)C` (stereo not shown) [WS-3, N-ethyl p-menthanecarboxamide, reference compound], 1.5 ppm.
